# According to US20020123456A1, “Methods of identifying agents affecting atrophy and hypertrophy” (priority 2001, published 2002):
# Entries after “also recorded” stand apart in the source; their conditions may differ.
# Legend:
# PI(3)K/Akt/mTOR pathway = assay: PI(3)K/Akt/mTOR and ERK signalling in C2C12 differentiated myotubes (immunoblot, kinase assay); format: cell-based; details: for phosphorylation of downstream targets of the PI(3)K/Akt/mTOR pathway (Akt, p70S6K, GSK3, PHAS-1/4E-BP1): IGF-1 10 ng ml-1 or Ca-I 1.0 μM, 15 min
# From the text: (§1) As a first step towards examining the roles of the calcineurin/NFAT and PI(3)K/Akt pathways during IGF-induced myotube hypertrophy, we added IGF-1 to differentiated myotubes and determined whether these pathways were activated. Calcineurin is a protein phosphatase that is activated by increases in intracellular calcium levels, which in turn dephosphorylates the NFAT transcription factors; this dephosphorylation results in the translocation of NFATs to the nucleus and subsequent gene transcription. NFAT dephosphorylation and nuclear translocation are therefore markers of calcineurin activation (FIG. 7, right). For markers of activation of the PI(3)K/Akt pathway, the phosphorylation of Akt itself or of downstream targets such as p70S6 kinase (p70S6K), PHAS-1/4E-BP1 or GSK3 were used (FIG. 7).
# (§2) Protein analysis of total cell lysates was conducted as described8. The antibodies used were anti-phospho-Erk1/2 (Thr 202/Tyr 204; NEB); anti-phospho-Akt (Ser 473; NEB); anti-phospho- GSK3 (Ser 9/21; NEB); anti-phospho-p70S6K (Thr 389; NEB); anti-phospho-PHAS-1/4E-BP1 (Thr 65; NEB); anti-Erk1/2 (UBI), anti-Akt (NEB), anti-p70S6K (C-18; Santa Cruz), anti-PHAS-1/4EBP1 (Zymed) and anti-NFAT-C1 (7A6; Santa Cruz).
# (§3) Immunoprecipitations and immunoblotting were performed as described. Proteins were detected with the chemiluminescence detection system Renaissance; NEN). To measure the enzymatic activity of p70S6K an immunocomplex kinase assay was performed as described (Azpiazu, I., Saltiel, A. R., DePaoli-Roach, A. A. & Lawrence, J. C. J. Biol. Chem. 271, 5033-5039 (1996)).
# C2C12 myotubes = assay: C2C12 myotube hypertrophy (myotube diameter); format: cell-based; details: LY294002 10 μM; for IGF-1-induced myotube hypertrophy: D2 myotubes, IGF-1 10 ng ml-1 plus CsA 5 μM, rapamycin 2 ng ml-1, PD98059 or Ara-C 10 μM; for myotube size / hypertrophy, agent alone: D2 myotubes treated at day 2 after fusion, analysed day 4, IGF-1 10 ng ml-1, CsA 5 μM, Ca-I 1 μM
# Procedure: FIG. 9. […] Myotubes were treated at day 2 after fusion with the PI(3)K inhibitor LY294002 (LY; 10 μM), the mTOR inhibitor rapamycin (RAP, 2 ng ml-1), IGF-1 (10 ng ml-1) and with a combination of IGF-1 and each inhibitor, and analyzed for morphological effects at day 4. […] C2C12 myotubes were treated at day 2 after induction of differentiation with IGF-1 (10 ng ml-1) or a combination of Ara-C (10 μM) and IGF-1 (10 ng ml-1), and analysed the next day. Untreated myotubes are shown (CON). […] Quantification of myotube diameters is shown. The average number of nuclei per myotube is presented for each condition in the bottom row.
# To distinguish between effects on myoblast differentiation and those on the trophic state of existing myofibres, we exploited the C2C12 myoblast differentiation system. C2C12 myoblasts proliferate until they reach confluence; then, in serum-poor medium, the myoblasts fuse into multi-nucleated myotubes. Differentiated myotubes are predominant by 2 days after fusion (D2 myotubes) and survive for another 3 days. […] IGF-1-induced myotube hypertrophy, as measured by an increase in diameter and an increase in total protein, is normally accompanied by an increase in nuclei within the myofibres.
# To obtain more direct evidence, we next used the pharmacological inhibitors of the calcineurin and PI(3)K/Akt pathways in assays of IGF-1-induced myotube hypertrophy. Further, we introduced gene-expression vectors into the myotubes that induced the expression of either activators or dominant-negative blockers of these pathways.
# C2C12 myoblasts were cultured and transfected as described (Glass, D. J. et al. Cold Spring Harb. Symp. Quant. Biol. 57, 53-62 (1992)). Flow cytometry and cell sorting were performed on a Cytomation MoFlo (Fort Collins, Colorado) high-speed cell sorter (FACS) (Rommel, C. et al. Science 286, 1738-1741 (1999)). Myoblasts were fused into myotubes at confluence, by shifting the medium to DMEM+2% horse serum. Myotube diameter was quantified as follows: 10 fields were chosen randomly, and approximately 10 myotubes were measured per field. The average diameter per myotube was calculated as the mean of ten measurements taken along the length of the myotube. For the constitutively active Akt, kinaseinactive Akt, wild-type Akt, wild-type SHIP2, dominant-negative SHIP2, constitutively active p70S6K and dominant-negative GSK3β constructs, transfected myotubes were determined by the co-expression of enhanced green fluorescent protein (EGFP; see below for construct details); thus, only transfected myotubes were assessed for hypertrophy. For the tetracycline-inducible calcineurin, myotubes expressing calcineurin were identified by EGFP expression, and comparisons were made between EGFP-positive and EGFP-negative myotubes. […]
# calcineurin/NFAT-C1 = assay: NFAT-C1 phosphorylation and translocation in C2C12 differentiated myotubes (immunoblot); format: cell-based; details: for NFAT-C1 phosphorylation state and nuclear translocation: IGF-1 10 ng ml-1 or Ca-I 1.0 μM, 15 min
# From the text: as §1, §2, §3
# rat plantaris muscle = assay: Compensatory hypertrophy of the plantaris after surgical overload; format: in vivo
# Procedure: Female Sprague-Dawley rats (250-275 g) were anaesthetized with ketamine/xylazine (50/10 mg kg-1, intraperitoneally); with the use of aseptic surgical techniques the soleus, medial gastrocnemius and lateral gastrocnemius muscles were removed bilaterally, producing a functional overload on the plantaris muscles. In some instances, plasmid DNA (100 μl) was injected into the muscle immediately after the procedure. The hindlimbs of adult female SD rats (225-250 g) were unloaded by suspending their tails with a tail-traction bandage as described29. At the appropriate times, rats were killed and hindlimb muscles were removed, weighed and frozen in isopentane cooled with liquid nitrogen. Weight-matched surgically untreated rats served as controls.
# Transfection in vivo. Constructs used encoded the following: (1) myristoylated, c.a. […]
# Muscle fibre size was obtained from digitally imaged serial cross-sections of cryostat-sectioned muscle. Individual muscle fibres were outlined and cross-sectional area was determined with a computerassisted image analysis system (MetaMorph™; Universal Imaging Corporation). All data are expressed as means ±s.e.m. […]
# [1] = Rapamycin given to control (surgically untreated) adult animals; format: in vivo, rat; details: rapamycin for 14 days, data not shown
# From the text: The above findings indicate that the Akt pathway and its downstream targets are activated during muscle hypertrophy in vivo. To begin to determine the role of these activations, we used treatment in vivo with rapamycin, a quite specific inhibitor of one important Akt target, mTOR. Rapamycin, a selective blocker of mTOR, blocked hypertrophy in all models without causing atrophy in control muscles Rapamycin binds to its intracellular receptor, forming a complex that then binds to and inhibits mTOR activity (Schmeizie, T. & Hall, M. N. Cell 103, 253-262 (2000).). […] Treatment with rapamycin produced no non-specific effects; that is, there was no effect on body weight or the baseline weight of non-overloaded hindlimb muscles in these animals. Further, rapamycin given to control (surgically untreated) adult animals for 14 days had no effect on body weight or muscle weight (data not shown). In addition to the above results from rats, similar results were obtained when this hypertrophy model was performed in mice (data not shown).
Compound,IGF-1-induced myotube hypertrophy (C2C12 myotubes),NFAT-C1 phosphorylation state and nuclear translocation (calcineurin/NFAT-C1),"phosphorylation of downstream targets of the PI(3)K/Akt/mTOR pathway (Akt, p70S6K, GSK3, PHAS-1/4E-BP1) (PI(3)K/Akt/mTOR pathway)","myotube size / hypertrophy, agent alone (C2C12 myotubes)",other results
COc1cccc(-c2cc(=O)c3ccccc3o2)c1N [PD98059],did not block phenotypic hypertrophy,,,,"IGF-1-induced Akt / PI(3)K/Akt pathway activation (PI(3)K/Akt/mTOR pathway; IGF-1 10 ng ml-1 15 min, CsA 5 μM, LY294002 10 μM, rapamycin 2 ng ml-1, PD98059): without affecting steps in the PI(3)K/Akt/mTOR pathway; IGF-1-induced ERK activation (PI(3)K/Akt/mTOR pathway; IGF-1 10 ng ml-1 15 min, LY294002 10 μM, PD98059 10 μM): did indeed block ERK activation"
"CNc1ccc2oc(C[C@H]3O[C@@]4(CC[C@H]3C)O[C@H]([C@H](C)C(=O)c3ccc[nH]3)[C@H](C)C[C@H]4C)nc2c1C(=O)O [calcium ionophore, A23187]",,dephosphorylation-induced downshift in NFAT,none could be induced,thinner myotubes,"phosphorylation of downstream targets of the PI(3)K/Akt/mTOR pathway (Akt, p70S6K, GSK3, PHAS-1/4E-BP1) (PI(3)K/Akt/mTOR pathway; listed as Ca-I): had no effect on these kinases"
CO[C@H]1C[C@@H]2CC[C@@H](C)[C@@](O)(O2)C(=O)C(=O)N2CCCC[C@H]2C(=O)O[C@H]([C@H](C)C[C@@H]2CC[C@@H](O)[C@H](OC)C2)CC(=O)[C@H](C)/C=C(\C)[C@@H](O)[C@@H](OC)C(=O)[C@H](C)C[C@H](C)/C=C/C=C/C=C/1C [rapamycin],,,,,"blockage of hypertrophy (rat plantaris muscle; adaptive hypertrophy in adult animals, rapamycin): 95%; body weight or baseline weight of non-overloaded hindlimb muscles (rat plantaris muscle; overloaded rats treated with rapamycin 1.5 mg kg-1 i.p. daily): no effect; body weight or muscle weight [1]: had no effect"
IGF-1,,hyperphosphorylation of NFAT,induced the phosphorylation,resulting in hypertrophy,"calcium-ionophore-induced dephosphorylation and translocation of NFAT-C1 (calcineurin/NFAT-C1; Ca-I 1.0 μM, CsA 5 μM before stimulation or IGF-1 10 ng ml-1 simultaneously): blunted"
cytosine-β-D-arabinofuranoside [Ara-C],myotube diameter and total protein still increase; also recorded: does not inhibit IGF-1-mediated hypertrophy,,,,
